Test results from patent publication US9216983B2, “Dihydroorotate dehydrogenase inhibitors with selective anti-malarial activity” (BOARD OF REGENTS, UNIVERSITY OF TEXAS SYSTEM, priority 2007, dated 2015).
Where two headings read alike, the source gives them in different places.

Columns and labels:
PfDHODH = biological target: T1, PfDHODH (Plasmodium falciparum, UniProt Q08210); assay: biochemical
T1 sequence (Q08210 24-569): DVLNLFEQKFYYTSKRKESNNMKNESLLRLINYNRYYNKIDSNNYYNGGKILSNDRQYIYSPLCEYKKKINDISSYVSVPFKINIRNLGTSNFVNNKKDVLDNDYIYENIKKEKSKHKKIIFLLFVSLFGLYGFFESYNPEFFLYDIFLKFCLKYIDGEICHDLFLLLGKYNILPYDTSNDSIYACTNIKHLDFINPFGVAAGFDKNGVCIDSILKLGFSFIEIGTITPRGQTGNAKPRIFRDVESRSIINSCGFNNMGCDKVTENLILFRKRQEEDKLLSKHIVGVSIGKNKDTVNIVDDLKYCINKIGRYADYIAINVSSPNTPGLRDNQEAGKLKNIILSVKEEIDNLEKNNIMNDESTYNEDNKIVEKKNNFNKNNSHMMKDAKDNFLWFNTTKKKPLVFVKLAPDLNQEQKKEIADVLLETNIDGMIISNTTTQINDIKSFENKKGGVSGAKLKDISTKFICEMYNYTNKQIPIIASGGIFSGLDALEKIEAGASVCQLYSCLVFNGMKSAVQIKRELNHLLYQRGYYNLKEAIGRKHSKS
Method: (§1) Briefly, the assay solution contained 100 mM HEPES, pH 8.0, 150 mM NaCl, 10% glycerol, 0.1% Triton X-100, 20 micro molar COQD (coenzyme QD), 200 micro molar L-dihydroorotate, and 120 micro molar DCIP. Reactions are initiated by addition of enzyme to a final concentration in the range of about […] to about 50 nM while maintaining the temperature of a circulating water bath at 25° C.
(§2) Assay solutions were prepared as discussed above, except that DCIP is not present and the solution is depleted of oxygen by the inclusion of an oxidase/reductase system, such as, 0.1 mg/ml of glucose oxidase, 0.02 mg/ml catalase and 50 mM glucose. The data obtained is fitted to equation 1, to determine the IC50 values of the representative compounds.

PbDHODH = PbDHODH (Plasmodium berghei, UniProt A0A509AEH5); assay: DHODH enzyme inhibition assay, PbDHODH; assay type: biochemical, P. berghei; conditions: Table 4, IC50 class
Method: as §1, §2

P. falciparum = assay: Inhibition of cell proliferation, 3H-hypoxanthine uptake in P. falciparum-infected erythrocytes; assay type: cell-based; conditions: Plasmodium falciparum, 3D7, Erythrocyte, Table 5, 3D7 cells; read-out: EC50 P. falciparum 3D7 cells
Excerpt: [formula] II. In Vitro Evaluation of Compound Efficacy on the Human Malaria Parasite, P. falciparum.

hDHODH = hDHODH (Homo sapiens, UniProt Q02127); assay: DHODH enzyme inhibition assay, hDHODH; assay type: biochemical; conditions: Table 4, IC50 class; read-out: hDHODH
Method: as §1, §2

[1] = Table 5, read-out: PfDHODH IC50
[2] = Table 4, IC50 class, read-out: PfDHODH

Chain of PbDHODH (A0A509AEH5 entry or part of it): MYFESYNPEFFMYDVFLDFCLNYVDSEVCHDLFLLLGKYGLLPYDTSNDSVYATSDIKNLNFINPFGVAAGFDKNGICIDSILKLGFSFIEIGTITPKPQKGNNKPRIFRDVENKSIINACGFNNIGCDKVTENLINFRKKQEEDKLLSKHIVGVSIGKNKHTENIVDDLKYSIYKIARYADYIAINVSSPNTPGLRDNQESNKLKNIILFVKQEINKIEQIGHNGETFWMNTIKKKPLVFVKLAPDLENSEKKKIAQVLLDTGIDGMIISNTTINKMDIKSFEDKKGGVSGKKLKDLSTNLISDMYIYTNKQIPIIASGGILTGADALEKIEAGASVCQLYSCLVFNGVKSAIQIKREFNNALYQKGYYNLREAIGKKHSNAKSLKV
Chain of hDHODH (Q02127 whole entry): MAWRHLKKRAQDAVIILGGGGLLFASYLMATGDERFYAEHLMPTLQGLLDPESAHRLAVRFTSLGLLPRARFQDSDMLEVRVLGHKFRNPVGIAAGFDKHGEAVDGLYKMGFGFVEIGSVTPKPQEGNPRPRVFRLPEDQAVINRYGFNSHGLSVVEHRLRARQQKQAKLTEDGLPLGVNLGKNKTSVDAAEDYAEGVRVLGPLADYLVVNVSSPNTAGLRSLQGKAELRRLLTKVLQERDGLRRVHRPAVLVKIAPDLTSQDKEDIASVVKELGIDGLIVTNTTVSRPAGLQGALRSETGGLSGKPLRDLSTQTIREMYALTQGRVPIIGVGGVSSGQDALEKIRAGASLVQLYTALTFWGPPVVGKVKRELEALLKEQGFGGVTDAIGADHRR

Row | SMILES | IC50 (PbDHODH; PbDHODH) | IC50 (PfDHODH; [2]) | further results
1 | Cc1cc(Nc2ccc(C)c(C)c2)n2nc(C)nc2n1 | – | – | IC50 (PfDHODH; [1]): 0.0814 µM
2 | Cc1cc(Nc2ccc(F)cc2)n2ncnc2n1 | > 10 µM | > 10 µM | –
3 | CCc1cccc(Nc2cc(C)nc3ncnn23)c1 | – | – | IC50 (PfDHODH; [1]): 0.641 µM
4 | Cc1cc(Nc2ccc(Cl)c(C)c2)n2nc(C)nc2n1 | – | – | IC50 (PfDHODH; [1]): 1.39 µM
5 | Cc1cc(Nc2c(F)c(F)c(F)c(F)c2F)n2ncnc2n1 | > 10 µM | > 10 µM | –
6 | Cc1cc(Nc2ccc(C)c(F)c2)n2nc(C)nc2n1 | – | – | IC50 (PfDHODH; [1]): 0.629 µM
7 | Cc1cc(Nc2ccc(C#N)cc2)n2ncnc2n1 | – | 2 to 10 µM | –
8 | CCCCCc1ccc(Nc2cc(C)nc3ncnn23)cc1 | > 10 µM | < 2 µM | –
9 | Cc1nc2ncnn2c(Nc2ccc(C(F)(F)F)cc2)c1C [5,6-dimethyl-N-(4-(trifluoromethyl)phenyl)-[1,2,4]triazolo[1,5-a]pyrimidin-7-amine] | – | – | EC50 (P. falciparum): 2.7 ± 0.009 µM; IC50 (PfDHODH; [1]): 1.2 ± 0.33 µM
10 | Cc1cc(Nc2ccc(I)cc2)n2ncnc2n1 | – | – | IC50 (PfDHODH; [1]): 0.151 µM
11 | Cc1cc(Nc2cc(F)cc(F)c2)n2ncnc2n1 | – | 2 to 10 µM | IC50 (PbDHODH; read-out: PbDHODH): > 10 µM; IC50 (hDHODH): > 10 µM
12 | Cc1cc(Nc2ccc3c(c2)OCO3)n2ncnc2n1 | > 10 µM | < 2 µM | IC50 (hDHODH): > 10 µM
13 | Cc1cc(Nc2ccc(S(F)(F)(F)(F)F)cc2)n2ncnc2n1 | – | – | IC50 (PfDHODH; [1]): 0.117 ± 0.01 µM
14 | Cc1cc(Nc2ccc(C)c(F)c2)n2ncnc2n1 | – | < 2 µM | IC50 (PbDHODH; read-out: PbDHODH): 2 to 10 µM; IC50 (hDHODH): > 10 µM
15 | Cc1cc(Nc2ccc3c(c2)CCCC3)n2ncnc2n1 | – | – | IC50 (PfDHODH; [1]): 0.05 ± 0.008 µM
16 | Cc1cc(Nc2ccc(Cl)c(C(F)(F)F)c2)n2ncnc2n1 | – | < 2 µM | IC50 (PbDHODH; read-out: PbDHODH): < 2 µM
17 | Cc1cc(Nc2ccccc2F)n2ncnc2n1 | > 10 µM | > 10 µM | –
18 | C=Cc1ccc(Nc2cc(C)nc3ncnn23)cc1 | 2 to 10 µM | – | –
19 | Cc1cc(Nc2ccccc2C(F)(F)F)n2ncnc2n1 | > 10 µM | > 10 µM | –
20 | Cc1cc(Nc2ccc(C)c(Cl)c2)n2ncnc2n1 | – | – | IC50 (PfDHODH; [1]): 0.24 µM
21 | Cc1cc(Nc2ccc(Br)cc2)n2ncnc2n1 | > 10 µM | 2 to 10 µM | –

Row | SMILES | IC50 (PbDHODH; PbDHODH) | IC50 (PfDHODH; [2]) | further results
22 | CCCc1ccc(Nc2cc(C)nc3ncnn23)cc1 | 2 to 10 µM | < 2 µM | IC50 (hDHODH): > 10 µM
23 | Cc1cc(Nc2ccccc2C#N)n2ncnc2n1 | > 10 µM | > 10 µM | –
24 | Cc1cc(Nc2c(F)c(F)cc(F)c2F)n2ncnc2n1 | > 10 µM | > 10 µM | –
25 | Cc1cc(Nc2ccc3[nH]c(C(F)(F)F)nc3c2)n2ncnc2n1 | – | > 10 µM | IC50 (PbDHODH; read-out: PbDHODH): > 10 µM; IC50 (hDHODH): > 10 µM
26 | Cc1cccc(Nc2cc(C)nc3ncnn23)c1 | > 10 µM | 2 to 10 µM | –
27 | C#Cc1ccc(Nc2cc(C)nc3ncnn23)cc1 | – | – | IC50 (PfDHODH; [1]): 0.99 ± 0.18 µM
28 | CCc1nc2nc(C)cc(Nc3ccc(C)c(F)c3)n2n1 | – | – | IC50 (PfDHODH; [1]): 0.0663 µM
29 | Cc1cc(Nc2ccc(Br)c(C(F)(F)F)c2)n2ncnc2n1 | – | < 2 µM | IC50 (PbDHODH; read-out: PbDHODH): < 2 µM; IC50 (hDHODH): > 10 µM
30 | Cc1cc(Nc2ccc(-c3ccccc3)cc2)n2ncnc2n1 | – | 2 to 10 µM | –
31 | Cc1cc(NCCCc2ccccc2)n2ncnc2n1 | – | > 10 µM | IC50 (PbDHODH; read-out: PbDHODH): > 10 µM; IC50 (hDHODH): > 10 µM
32 | Cc1cc(Nc2ccccc2Cl)n2ncnc2n1 | > 10 µM | > 10 µM | –
33 | CCCc1nc2nc(C)cc(Nc3cccc(Cl)c3)n2n1 | – | – | IC50 (PfDHODH; [1]): 0.247 µM
34 | Cc1cc(Nc2ccc(OC(F)F)cc2)n2ncnc2n1 [drawing 44] | > 10 µM | < 2 µM | –
35 | Cc1cc(Nc2cc(C(F)(F)F)cc(C(F)(F)F)c2)n2ncnc2n1 | – | > 10 µM | IC50 (PbDHODH; read-out: PbDHODH): > 10 µM; IC50 (hDHODH): > 10 µM
36 | CCCCCCc1ccc(Nc2cc(C)nc3ncnn23)cc1 | > 10 µM | 2 to 10 µM | –
37 | Cc1cc(Nc2ccc(C)c(C(F)(F)F)c2)n2ncnc2n1 | – | < 2 µM | IC50 (PbDHODH; read-out: PbDHODH): 2 to 10 µM; IC50 (hDHODH): > 10 µM
38 | Cc1cc(Nc2ccc(N(C)C)cc2)n2ncnc2n1 | > 10 µM | < 2 µM | –
39 | Cc1cc(Nc2ccc(Cl)cc2)n2ncnc2n1 | – | < 2 µM | IC50 (PbDHODH; read-out: PbDHODH): 2 to 10 µM; IC50 (hDHODH): > 10 µM
40 | Cc1cc(Nc2ccccc2C)n2ncnc2n1 | > 10 µM | > 10 µM | –
41 | Cc1cc(Nc2c(F)cc(F)cc2F)n2ncnc2n1 | – | > 10 µM | IC50 (PbDHODH; read-out: PbDHODH): > 10 µM; IC50 (hDHODH): > 10 µM
